Measured values from patent US20090143465A1 (SUMITOMO CHEMICAL COMPANY, LIMITED, priority 2006, published 2009).

These compounds were tested on Adult houseflies (assay: Housefly knock-down test, oil solution sprayed in cubic chamber (Test Example 1)). Conditions: 0.7 ml of 0.00625% oil solution sprayed into 70 cm cubic chamber; adult houseflies (5 males and 5 females); counted up to 10 minutes after spraying.
Type: in vivo, houseflies (Musca domestica)
Protocol: A solution of 0.00625 part of the present compound (1) in 10 parts of dichloromethane was mixed with 89.99375 parts of deodorized kerosene to obtain a 0.00625% oil solution.
Adult houseflies (5 males and 5 females) were left in a cubic chamber (70 cm at each side). Into the chamber, 0.7 ml of 0.00625% oil solution of the present compound (1) prepared above was sprayed with a spray gun at a pressure of 8.8×10^4 Pa from a small window on the side of the chamber. Then, up to 10 minutes after spraying, the number of knocked-down insects was counted with time. From the results, a time required for knocking down 90% of the tested insects (KT90) was calculated.
In addition, the same test was carried out that 4-propargyl-2,3,5,6-tetrafluorobenzyl (1R)-trans-3-(2-methyl-1-propenyl)-2,2-dimethylcyclopropanecarboxylate represented by the formula: […]
(hereinafter, referred to as the comparative compound (A)), which is the compound described in JP-A 61-207361, was used as a comparative compound (repeated twice).

`C#CCc1c(F)c(F)c(COC(=O)C2C(/C=C(\C#N)C(=O)OCC)C2(C)C)c(F)c1F` (stereo not shown) and `C#CCc1c(F)c(F)c(COC(=O)C2C(/C=C(\C#N)C(=O)OC)C2(C)C)c(F)c1F` (stereo not shown) are within 1.5-fold of each other in “KT90 (time required for knocking down 90% of the tested insects)” value: 2.0 min for the first, 2.6 min for the second.

`C#CCc1c(F)c(F)c(COC(=O)C2C(/C=C(\C#N)C(=O)OC(C)C)C2(C)C)c(F)c1F` (stereo not shown) was tested, and the “KT90 (time required for knocking down 90% of the tested insects)” value was 5.1 min.

For `C#CCc1c(F)c(F)c(COC(=O)[C@@H]2[C@@H](C=C(C)C)C2(C)C)c(F)c1F` [Comparative compound (A), 4-propargyl-2,3,5,6-tetrafluorobenzyl (1R)-trans-3-(2-methyl-1-propenyl)-2,2-dimethylcyclopropanecarboxylate, reference compound], the “KT90 (time required for knocking down 90% of the tested insects)” value was >10 min.
